Results reported in PMC3502156, “Anti-plasmodial action of de novo-designed, cationic, lysine-branched, amphipathic, helical peptides” (Malaria Journal, 2012).
pIC50: −log10 of the molar value. Read-outs that look alike come from different tables or passages of the source. Residues, ends and D or L forms follow the SMILES beside them.

Legend:
[1] = system: P. falciparum INDO (CQ-resistant); assay: microbe, parasite or virus in culture; type: cell-based; details: Plasmodium falciparum; ring stage synchronized, 48 hr, SYBR Green I fluorescence, medium with 10% human serum; ± SD of three independent observations
Experimental: Chloroquine-sensitive (3D7) and CQ-resistant (Dd2 and INDO) strains of P. falciparum were maintained in continuous culture according to the method of Trager and Jensen with minor modifications. Cultures were maintained in fresh group O^+ve human erythrocytes suspended at 4% haematocrit in complete medium {16.2 g/L RPMI 1640 containing 25 mM HEPES, 11.11 mM glucose (Gibco), 0.2% sodium bicarbonate (Sigma), 0.5% Albumax I (Gibco), 45 μg/litre hypoxanthine (Sigma) and 50 μg/litre gentamicin (Gibco)} and incubated at 37°C under a gas mixture 5% O2, 5% CO2, and 90% N2. Every day, the spent medium was replaced by fresh complete medium to propagate the culture. […] Parasitaemia was monitored by microscopic examination of Giemsa-stained blood smears. […]
For drug screening, SYBR green I based fluorescence assay was used as described previously by Smilkstein et al.[30]. […] Fluorescence was measured with a Victor fluorescence multi-well plate reader (Perkin Elmer) with excitation and emission wavelength centred at 485 and 530 nm, respectively. Fluorescence counts for CQ (0.1 μM for 3D7, 1 μM for INDO) were subtracted from counts in each well. […] Results of the above mentioned fluorescence-based assay were validated microscopically by examination of Giemsa-stained smears of peptide-treated parasite cultures. Statistical significance of relative potencies of peptides was determined by student’s T test.

[2] = system: P. falciparum 3D7 (chloroquine-sensitive); assay: microbe, parasite or virus in culture; type: cell-based, Plasmodium falciparum; details: ring stage synchronized, haematocrit 2%, parasitaemia 1%, 48 hr, SYBR Green I fluorescence, ± SD of three independent observations, read-out: IC50 P. falciparum 3D7
Experimental: (§1) Chloroquine-sensitive (3D7) and CQ-resistant (Dd2 and INDO) strains of P. falciparum were maintained in continuous culture according to the method of Trager and Jensen with minor modifications. Cultures were maintained in fresh group O^+ve human erythrocytes suspended at 4% haematocrit in complete medium {16.2 g/L RPMI 1640 containing 25 mM HEPES, 11.11 mM glucose (Gibco), 0.2% sodium bicarbonate (Sigma), 0.5% Albumax I (Gibco), 45 μg/litre hypoxanthine (Sigma) and 50 μg/litre gentamicin (Gibco)} and incubated at 37°C under a gas mixture 5% O2, 5% CO2, and 90% N2. Every day, the spent medium was replaced by fresh complete medium to propagate the culture. […] Parasitaemia was monitored by microscopic examination of Giemsa-stained blood smears. Synchronized ring stage parasite was obtained by 5% sorbitol treatment. Trophozoites and schizont-stage parasites were enriched by using Percoll gradient.
(§2) Stock solutions of peptides and CQ were prepared in water (milli-Q grade) while artemisinin stock solution was in dimethyl sulphoxide (DMSO). All stocks were then diluted with culture medium to achieve the required drug concentrations. The concentration of peptide solution in water was based on A280 [ϵ (M^-1 cm^-1) ΔF (didehydrophenylalanine) 19,000, W (Tryptophan) 5,000)]. Thus ϵ280 were 62,000, 124,000, 124,000 and 248,000 for ΔFm, (ΔFm)2, ΔFd and ΔFq respectively. The concentration of FITC-peptides was based on A495 [ϵ(M^-1 cm^-1) FITC 77,000 for (ΔFm)2 with one FITC and 154,000 for ΔFd with two FITC per molecule]. Drugs and peptides solutions were placed in 96-well flat bottom tissue culture grade plates (Corning).
(§3) For drug screening, SYBR green I based fluorescence assay was used as described previously by Smilkstein et al.[30]. Sorbitol synchronized ring stage parasites (haematocrit: 2%, parasitaemia: 1%, 100 μl) under normal culture conditions were incubated in the absence or presence of increasing concentrations of peptides in water. CQ and artemisinin were used as positive controls. […] After 48 hr of incubation 100 μl of SYBR Green I buffer [0.2 μl of 10,000 X SYBR Green I (Invitrogen) per ml of lysis buffer {Tris (20 mM; pH 7.5), EDTA (5 mM), saponin (0.008%; wt/vol), and Triton X-100 (0.08%; vol/vol)}] was added to each well, mixed twice gently with multi-channel pipette and incubated in dark at 37 °C for 1 h. Fluorescence was measured with a Victor fluorescence multi-well plate reader (Perkin Elmer) with excitation and emission wavelength centred at 485 and 530 nm, respectively. Fluorescence counts for CQ (0.1 μM for 3D7, 1 μM for INDO) were subtracted from counts in each well. The fluorescence counts were plotted against the drug concentration and IC50 (the 50% inhibitory concentration) was determined by analysis of dose–response curves. Results of the above mentioned fluorescence-based assay were validated microscopically by examination of Giemsa-stained smears of peptide-treated parasite cultures. Statistical significance of relative potencies of peptides was determined by student’s T test.

[3] = system: P. falciparum Dd2 (CQ-resistant); assay: microbe, parasite or virus in culture; type: cell-based, Plasmodium falciparum
Experimental: as §1, §2, §3

[4] = system: uninfected erythrocytes (URBC); assay: Haemolysis assay, uninfected red cells; type: cell-based, human; details: 2% haematocrit in PBS, 37°C, 3 hr, haemoglobin release A415, 100% = 0.4% Triton X-100; ± SD of three independent observations
Experimental: (§4) Selectivity of haemolysis by peptides for infected erythrocytes (PRBC) vs uninfected erythrocytes (URBC) was examined by incubating the test molecules with URBCs and PRBCs respectively in phosphate-buffered saline (PBS). Briefly, fresh RBCs were spin washed (1600 RPM; 5 min) three times in PBS and re-suspended in PBS at 2% haematocrit. A 100 μl suspension was added to 96-well plate containing the peptides at different concentrations. […] After incubation at 37°C for 3 hr, the samples were centrifuged and supernatant was used to determine the haemolytic activity measured in terms of haemoglobin release as monitored by […]. Triton-treated control samples were diluted 10-fold before reading absorbance. […] Percent haemolysis has been expressed with reference to 100% haemolysis value assigned to positive control (triton X 100 treated RBCs). To study haemolytic susceptibility of parasitized cells, URBCs were replaced with varying percentages (10% and 20%) of mixed stage parasitized cells. […] Haemolysis of parasitized erythrocytes was also monitored microscopically by examining the Giemsa-stained smears. Parasitaemia of ΔFd treated and untreated cultures were microscopically counted for ring, trophozoite and schizont stages respectively. Susceptibility of different stages was compared with corresponding untreated control cultures.

[5] = system: infected erythrocytes (PRBC); assay: Haemolysis assay, parasitized red cells; type: cell-based, Plasmodium falciparum; details: up to 40 μM, 3 hr, A415
Experimental: as §4

SMILES | pIC50 [1] | pIC50 ([2]; Plasmodium falciparum, 3D7) | Resistance index IC50 Dd2/ IC50 3D7 ([3]; IC50 CQ resistant strain/ IC50 CQ sensitive strain) | pIC50 ([3]; Plasmodium falciparum, DD2, ring stage synchronized, haematocrit 2%, parasitaemia 1%, 48 hr, SYBR Green I fluorescence, ± SD of three independent observations, read-out: IC50 P. falciparum Dd2) | pIC50 [2] | HC50 URBC [4] [µM] | haemolysis of infected red cells by control peptides [5]
C[C@@H]1CC[C@H]2[C@@H](C)C(=O)O[C@@H]3O[C@@]4(C)CC[C@@H]1[C@]32OO4 [Artemisinin, reference compound] | 7.82 | 7.82 | 1 | 7.80 |  |  | 
CC(C)C[C@H](NC(=O)[C@H](CCC(N)=O)NC(=O)[C@@H]1CCCN1C(=O)[C@H](CC(C)C)NC(=O)[C@H](CC(=O)O)NC(=O)[C@@H](NC(=O)[C@@H](NC(=O)[C@H](Cc1c[nH]cn1)NC(=O)[C@@H]1CCCN1C(=O)[C@H](CC(C)C)NC(=O)[C@@H]1CCCN1C(=O)[C@@H]1CCCN1C(=O)[C@H](C)NC(=O)[C@H](CO)NC(=O)[C@@H]1CCCN1C(=O)[C@H](CCCNC(=N)N)NC(=O)[C@@H](NC(=O)[C@H](C)NC(=O)CNC(=O)[C@H](CC(C)C)NC(=O)[C@@H]1CCCN1C(=O)[C@H](C)NC(=O)[C@H](CO)NC(=O)[C@H](Cc1c[nH]cn1)NC(=O)[C@H](CC(=O)O)NC(=O)[C@@H]1CCCN1C(=O)[C@@H]1CCCN1C(=O)[C@@H](N)CC(N)=O)[C@@H](C)O)C(C)C)C(C)C)C(=O)NCC(=O)N1CCC[C@H]1C(=O)O [E30, reference compound] (H-NPPDHSAPLGATRPSAPPLPHVVDLPQLGP-OH) |  |  |  |  | < 4.40 | > 40 | not to show any haemolysis
